Experimental findings from BindingDB's records for doi:10.7270/Q2BV7F1T (Pcmd, 2008) are described below.

The target in one experiment is T1, DNA repair protein RAD51 homolog 1 (Homo sapiens, UniProt Q06609).
T1 sequence (Q06609 whole entry): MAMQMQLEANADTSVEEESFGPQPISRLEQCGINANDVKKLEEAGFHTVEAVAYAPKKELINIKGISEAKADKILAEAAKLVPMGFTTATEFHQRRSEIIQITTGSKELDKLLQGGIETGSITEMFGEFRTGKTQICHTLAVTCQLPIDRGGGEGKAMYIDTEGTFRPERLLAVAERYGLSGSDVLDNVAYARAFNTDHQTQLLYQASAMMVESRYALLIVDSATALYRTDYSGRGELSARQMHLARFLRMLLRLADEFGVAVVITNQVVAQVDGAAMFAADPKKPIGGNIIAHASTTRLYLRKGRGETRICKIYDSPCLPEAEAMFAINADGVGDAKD
The experiment is described as follows: RAD51 recombination inhibitor potency, dose response, biochemical, homologous recombination, fluorescence (AID 1435).
Details: not given
Regarding `Cn1cc(NC(=O)c2cc(NC(=O)c3cc(NC=O)cn3C)cn2C)cc1C(=O)NCCC(=N)N`, the IC50 was determined as 6.37 µM.

As to `CCOc1ccccc1C(=O)Nc1nccs1`, the IC50 was greater than 85 µM.

For the compound `CC1=CC(C)C(COC(N)=O)(COC(N)=O)C(C)C1` (stereo unspecified), the IC50 was greater than 85 µM.

Take `Cc1[nH]nc2c1C(=O)CCC2`: the IC50 was greater than 85 µM.

As to `O=C(CSc1ncn(-c2ccccc2)n1)c1cccs1`, the IC50 is greater than 85 µM.

As to `CCOC(=O)C(NC(C)=O)(Nc1ccc(S(=O)(=O)Nc2cc(C)on2)cc1)C(F)(F)F` (stereo unspecified), the IC50 was greater than 85 µM.

For the compound `CCC(=O)Nc1nc(=S)ss1`, the IC50 was greater than 85 µM.

For `COc1ccc(S(=O)(=O)NC(C)C(=O)Nc2ccccc2C(F)(F)F)cc1` (stereo unspecified), the IC50 is greater than 85 µM.

`CCCCNC(=S)NNC(=O)C12CC3CC(CC(C3)C1)C2`: the IC50 is greater than 85 µM.

For the compound `Cc1cc(O)c(C=O)c2c1C(=O)Oc1c(CO)c(O)c3c(c1O2)C(O)OC3=O` (stereo unspecified) [1,4,10-Trihydroxy-5-hydroxymethyl-8-methyl-3,7-dioxo-1,3-dihydro-7H-benzo[e]furo[3'''',4'''':3,4]benzo[b][1,4]dioxepine-11-carbaldehyde], the concentration for half-maximal inhibition (IC50) was found to be 8.02 µM.

`COc1cc(C)c2c(c1C=O)Oc1c(c(C)c(O)c3c1C(O)OC3=O)OC2=O` (stereo unspecified) [1,4-Dihydroxy-10-methoxy-5,8-dimethyl-3,7-dioxo-1,3-dihydro-7H-benzo[e]furo[3',4':3,4]benzo[b][1,4]dioxepine-11-carbaldehyde]: the IC50 turned out to be 8.74 µM.

As to `CCOC(=O)C1CCN(C(=O)c2ccco2)CC1` [1-(2-furoyl)isonipecotic acid ethyl ester], the IC50 is greater than 85 µM.

On to `Cc1ccccc1NC(=O)NCC1CCCO1` (stereo unspecified) [1-(2-methylphenyl)-3-(oxolan-2-ylmethyl)urea], for which the IC50 was greater than 85 µM.

`CCOC(=O)C1CCCN(S(=O)(=O)c2ccc(OC)cc2)C1` (stereo unspecified) [1-(4-methoxyphenyl)sulfonyl-3-piperidinecarboxylic acid ethyl ester]: the IC50 was greater than 85 µM.

For `O=C(CSc1nnc(Cc2ccccc2)o1)N1CCc2ccccc21` [1-{[(5-benzyl-1,3,4-oxadiazol-2-yl)thio]acetyl}indoline], the IC50 is greater than 85 µM.

On to `O=c1cc(-c2ccccc2Cl)oc2ccc([N+](=O)[O-])c(O)c12` [2-(2-chlorophenyl)-5-hydroxy-6-nitrochromen-4-one], for which the IC50 was greater than 85 µM.

`C=CCNc1oc(-c2ccc(OC)cc2)nc1C#N` [2-(4-methoxyphenyl)-5-(prop-2-enylamino)-1,3-oxazole-4-carbonitrile]: the IC50 is greater than 85 µM.

For the compound `CCOC(=O)Cn1c(=O)c2c(nc(N3CCCCC3)n2Cc2ccccc2)n(C)c1=O` [2-(7-benzyl-2,6-diketo-3-methyl-8-piperidino-purin-1-yl)acetic acid ethyl ester], the IC50 is greater than 85 µM.

For `CCN(CC)S(=O)(=O)c1ccc2c(c1)nc(SC(C)C(N)=O)n2-c1ccc(OC)cc1` (stereo unspecified) [2-[5-(diethylsulfamoyl)-1-(4-methoxyphenyl)benzimidazol-2-yl]sulfanylpropanamide], the IC50 worked out at 34.8 µM.

For the compound `O=C(CSCc1ccc(F)cc1)Nc1nc2c(s1)CCCC2` [2-[(4-fluorobenzyl)thio]-N-(4,5,6,7-tetrahydro-1,3-benzothiazol-2-yl)acetamide], the IC50 is greater than 85 µM.

For the compound `COc1cc(CN2CCN(c3ccc(C)cc3)CC2)cc([N+](=O)[O-])c1O` [2-methoxy-4-[[4-(4-methylphenyl)-1-piperazinyl]methyl]-6-nitrophenol], the half-inhibitory concentration (IC50) is greater than 85 µM.

`CCOC(=O)C1(C(=O)OCC)CC1c1ccccc1` (stereo unspecified) [2-phenylcyclopropane-1,1-dicarboxylic acid diethyl ester]: the IC50 was greater than 85 µM.

Still in this experiment, the particulars now being: inactive by the depositor's call.
As to `CCOc1ccc(OCC)c(NC(=O)C2CCN(c3ncccn3)CC2)c1`, the IC50 turned out to be 42.5 µM.

Take `CCOC(=O)N1CCN(C(=O)CSCC(=O)N=c2sc3ccccc3n2C)CC1`: the half-inhibitory concentration (IC50) amounted to 42.5 µM.

With `CCCCC(Nc1ncnc2ccccc12)C(=O)O` (stereo unspecified) [2-(4-quinazolinylamino)hexanoic acid], the IC50 amounted to 42.5 µM.

For the compound `CCOC(=O)Cn1c(=O)c2c(nc(N3CCCCC3)n2Cc2ccccc2)n(C)c1=O` [2-(7-benzyl-2,6-diketo-3-methyl-8-piperidino-purin-1-yl)acetic acid ethyl ester], the IC50 was 1.4 µM.

For orientation: IC50 means the point on the concentration scale where inhibition reaches its midpoint.
